Test results from patent US9096627B2, “Hydroxamic acid derivatives” (Purdue Pharmaceutical Products L.P., priority 2009, dated 2015).

Legend:
HDAC-10 = HDAC-10 (Homo sapiens (Human), UniProt Q969S8); assay: Inhibition of histone deacetylase enzymatic activity (Fluor-de-Lys); type: biochemical
Method: (§1) Hydroxamic acid is a well know metal-chelating agent, especially for Zn atom. […] Many of these metalloenzymes are well known important disease target, such as HDAC and MMP. […] The following protocol is used to assay the compounds of the invention against the HDAC enzymes.
(§2) The enzyme stock solution is 4 μg/mL in buffer. The compounds are pre-incubated (2 μl in DMSO diluted to 13 μl in buffer for transfer to assay plate) with enzyme (20 μl of 4 μg/ml) for 10 minutes at room temperature (35 μl pre-incubation volume). The mixture is pre-incubated for 5 minutes at room temperature. The reaction is started by bringing the temperature to 37° C. and adding […] substrate. Total reaction volume is 50 μl. […] Such assays, carried out with a range of doses of test compounds, allow the determination of an approximate IC50 value.

HDAC-1 = HDAC-1 (Homo sapiens (Human), UniProt Q13547); assay: as above; type: biochemical
Method: as §1, §2

HDAC-3 = HDAC-3 (Homo sapiens (Human), UniProt O15379); assay: as above; type: biochemical
HDAC-3, sequence (O15379 whole entry, looked up, species assumed): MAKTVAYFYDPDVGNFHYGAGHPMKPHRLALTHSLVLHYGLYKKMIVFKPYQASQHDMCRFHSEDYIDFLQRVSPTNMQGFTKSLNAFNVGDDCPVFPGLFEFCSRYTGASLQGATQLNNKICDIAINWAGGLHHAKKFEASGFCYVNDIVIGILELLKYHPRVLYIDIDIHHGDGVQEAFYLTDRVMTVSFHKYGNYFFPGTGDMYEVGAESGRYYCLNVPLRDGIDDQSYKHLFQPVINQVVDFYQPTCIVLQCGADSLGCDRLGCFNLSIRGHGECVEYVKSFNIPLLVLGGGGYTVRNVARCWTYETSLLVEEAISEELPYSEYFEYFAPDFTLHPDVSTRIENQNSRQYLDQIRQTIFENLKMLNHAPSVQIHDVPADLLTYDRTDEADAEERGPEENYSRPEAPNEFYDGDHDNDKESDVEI
HDAC-3, sequence (Q9Y618 whole entry partner, looked up, species assumed): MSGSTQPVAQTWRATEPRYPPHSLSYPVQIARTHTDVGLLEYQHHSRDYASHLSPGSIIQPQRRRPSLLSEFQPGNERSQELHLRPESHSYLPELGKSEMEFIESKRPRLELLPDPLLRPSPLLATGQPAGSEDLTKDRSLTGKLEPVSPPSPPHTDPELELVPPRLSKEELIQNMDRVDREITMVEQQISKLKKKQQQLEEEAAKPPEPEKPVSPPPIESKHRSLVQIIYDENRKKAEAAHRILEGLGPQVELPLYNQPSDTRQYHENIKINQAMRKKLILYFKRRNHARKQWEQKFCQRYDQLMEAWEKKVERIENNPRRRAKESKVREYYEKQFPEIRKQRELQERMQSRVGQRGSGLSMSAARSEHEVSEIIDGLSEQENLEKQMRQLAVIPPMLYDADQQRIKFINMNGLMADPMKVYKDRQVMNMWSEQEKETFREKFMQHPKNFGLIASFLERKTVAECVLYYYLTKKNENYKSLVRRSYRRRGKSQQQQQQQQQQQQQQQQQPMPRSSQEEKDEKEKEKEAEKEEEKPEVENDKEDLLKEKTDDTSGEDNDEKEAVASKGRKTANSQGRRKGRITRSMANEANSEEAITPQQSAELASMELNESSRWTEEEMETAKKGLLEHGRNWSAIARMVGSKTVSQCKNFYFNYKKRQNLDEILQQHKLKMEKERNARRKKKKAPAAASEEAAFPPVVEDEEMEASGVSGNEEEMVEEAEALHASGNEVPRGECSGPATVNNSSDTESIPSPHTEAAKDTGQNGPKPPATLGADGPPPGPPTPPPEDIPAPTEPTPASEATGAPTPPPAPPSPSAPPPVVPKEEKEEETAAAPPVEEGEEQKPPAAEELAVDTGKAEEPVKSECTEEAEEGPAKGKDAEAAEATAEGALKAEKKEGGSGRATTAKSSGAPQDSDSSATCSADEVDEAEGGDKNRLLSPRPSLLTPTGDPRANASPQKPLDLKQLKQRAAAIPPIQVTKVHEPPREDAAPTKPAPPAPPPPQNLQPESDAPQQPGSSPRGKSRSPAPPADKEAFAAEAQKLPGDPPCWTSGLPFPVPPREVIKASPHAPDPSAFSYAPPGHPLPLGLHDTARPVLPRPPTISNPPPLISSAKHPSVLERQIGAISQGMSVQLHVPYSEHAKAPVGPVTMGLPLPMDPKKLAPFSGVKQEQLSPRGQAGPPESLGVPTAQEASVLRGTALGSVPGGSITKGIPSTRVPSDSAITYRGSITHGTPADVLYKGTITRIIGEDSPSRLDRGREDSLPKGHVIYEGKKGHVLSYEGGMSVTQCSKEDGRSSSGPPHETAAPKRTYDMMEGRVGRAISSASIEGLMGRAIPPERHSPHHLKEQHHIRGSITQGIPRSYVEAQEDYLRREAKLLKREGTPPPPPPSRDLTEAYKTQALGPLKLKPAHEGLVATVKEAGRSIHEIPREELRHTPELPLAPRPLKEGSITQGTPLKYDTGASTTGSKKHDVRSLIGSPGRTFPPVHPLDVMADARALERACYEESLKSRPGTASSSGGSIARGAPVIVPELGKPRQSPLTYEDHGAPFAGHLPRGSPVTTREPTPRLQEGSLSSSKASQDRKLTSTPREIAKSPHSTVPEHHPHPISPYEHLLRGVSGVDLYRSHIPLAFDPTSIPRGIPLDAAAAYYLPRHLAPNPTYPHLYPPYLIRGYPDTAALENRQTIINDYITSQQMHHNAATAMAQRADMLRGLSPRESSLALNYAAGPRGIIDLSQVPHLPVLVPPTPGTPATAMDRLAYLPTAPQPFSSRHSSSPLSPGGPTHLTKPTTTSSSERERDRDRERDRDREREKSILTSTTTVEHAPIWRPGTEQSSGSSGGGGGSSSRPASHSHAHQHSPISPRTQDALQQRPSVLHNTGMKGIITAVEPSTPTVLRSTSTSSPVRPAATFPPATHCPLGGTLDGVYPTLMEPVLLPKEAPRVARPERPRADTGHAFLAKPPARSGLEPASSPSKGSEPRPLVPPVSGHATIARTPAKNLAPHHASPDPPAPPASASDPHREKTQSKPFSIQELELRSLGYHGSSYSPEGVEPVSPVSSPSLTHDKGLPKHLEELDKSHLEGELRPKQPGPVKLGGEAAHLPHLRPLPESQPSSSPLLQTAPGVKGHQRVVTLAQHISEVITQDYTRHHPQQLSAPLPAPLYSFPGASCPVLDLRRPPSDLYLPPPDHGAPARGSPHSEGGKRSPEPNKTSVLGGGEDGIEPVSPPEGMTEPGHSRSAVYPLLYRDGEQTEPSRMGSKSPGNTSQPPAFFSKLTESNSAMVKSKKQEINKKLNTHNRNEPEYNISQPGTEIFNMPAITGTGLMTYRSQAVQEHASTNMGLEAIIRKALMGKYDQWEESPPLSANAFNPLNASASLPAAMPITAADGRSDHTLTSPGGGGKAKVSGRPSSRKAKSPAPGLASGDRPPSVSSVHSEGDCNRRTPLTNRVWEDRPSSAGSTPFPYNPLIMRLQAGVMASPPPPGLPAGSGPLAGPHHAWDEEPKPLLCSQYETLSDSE
Method: as §1, §2

HDAC-6 = HDAC-6 (Homo sapiens (Human), UniProt Q9UBN7); assay: as above; type: biochemical
HDAC-6, sequence (Q9UBN7 whole entry, species assumed): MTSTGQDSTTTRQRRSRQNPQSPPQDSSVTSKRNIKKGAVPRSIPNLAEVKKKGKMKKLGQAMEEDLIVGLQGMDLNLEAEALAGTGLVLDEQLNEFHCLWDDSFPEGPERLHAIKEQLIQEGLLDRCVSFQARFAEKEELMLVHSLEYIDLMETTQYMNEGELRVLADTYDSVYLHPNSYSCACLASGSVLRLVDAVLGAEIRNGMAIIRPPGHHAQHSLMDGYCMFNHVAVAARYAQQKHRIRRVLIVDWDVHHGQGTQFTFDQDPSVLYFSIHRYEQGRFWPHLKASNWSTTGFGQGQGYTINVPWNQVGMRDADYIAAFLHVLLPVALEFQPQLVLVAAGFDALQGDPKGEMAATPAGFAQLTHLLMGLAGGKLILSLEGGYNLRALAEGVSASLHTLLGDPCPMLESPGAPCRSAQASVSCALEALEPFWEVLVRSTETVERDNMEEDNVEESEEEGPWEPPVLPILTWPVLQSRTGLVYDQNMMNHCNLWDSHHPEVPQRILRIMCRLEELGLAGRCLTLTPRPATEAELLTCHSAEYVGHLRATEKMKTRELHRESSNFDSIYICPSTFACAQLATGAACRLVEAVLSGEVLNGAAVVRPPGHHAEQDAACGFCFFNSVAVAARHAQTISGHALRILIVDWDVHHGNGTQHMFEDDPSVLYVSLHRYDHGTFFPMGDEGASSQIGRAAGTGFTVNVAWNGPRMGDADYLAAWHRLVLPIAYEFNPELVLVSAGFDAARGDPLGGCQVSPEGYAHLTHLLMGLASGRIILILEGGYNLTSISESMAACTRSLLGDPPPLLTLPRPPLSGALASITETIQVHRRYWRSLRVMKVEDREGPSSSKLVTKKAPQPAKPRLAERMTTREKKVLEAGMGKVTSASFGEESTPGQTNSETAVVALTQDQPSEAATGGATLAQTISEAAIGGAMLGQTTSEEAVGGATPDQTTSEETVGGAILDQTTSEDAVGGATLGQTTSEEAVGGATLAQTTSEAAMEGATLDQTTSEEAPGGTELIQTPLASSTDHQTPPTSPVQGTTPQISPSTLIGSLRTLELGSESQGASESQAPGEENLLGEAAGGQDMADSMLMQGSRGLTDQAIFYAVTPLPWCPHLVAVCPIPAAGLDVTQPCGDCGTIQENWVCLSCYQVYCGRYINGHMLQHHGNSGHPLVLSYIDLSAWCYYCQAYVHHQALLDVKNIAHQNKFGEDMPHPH
Method: as §1, §2

HDAC-8 = HDAC-8 (Homo sapiens (Human), UniProt Q9BY41); assay: as above; type: biochemical
HDAC-8, sequence (Q9BY41 whole entry, species assumed): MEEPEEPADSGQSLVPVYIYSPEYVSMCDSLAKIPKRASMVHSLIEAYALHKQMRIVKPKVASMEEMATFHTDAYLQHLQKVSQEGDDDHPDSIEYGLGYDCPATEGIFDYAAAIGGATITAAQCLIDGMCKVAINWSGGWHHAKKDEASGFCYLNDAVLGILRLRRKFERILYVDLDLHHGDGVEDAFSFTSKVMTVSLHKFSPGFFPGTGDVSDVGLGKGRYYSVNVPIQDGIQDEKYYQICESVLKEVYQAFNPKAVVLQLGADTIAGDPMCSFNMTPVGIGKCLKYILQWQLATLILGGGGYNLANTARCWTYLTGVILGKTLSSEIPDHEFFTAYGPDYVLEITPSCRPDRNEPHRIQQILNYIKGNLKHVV
Method: as §1, §2

HDAC-2 = HDAC-2 (Homo sapiens (Human), UniProt Q92769); assay: biochemical; type: biochemical
HDAC-2, sequence (Q92769 whole entry, species assumed): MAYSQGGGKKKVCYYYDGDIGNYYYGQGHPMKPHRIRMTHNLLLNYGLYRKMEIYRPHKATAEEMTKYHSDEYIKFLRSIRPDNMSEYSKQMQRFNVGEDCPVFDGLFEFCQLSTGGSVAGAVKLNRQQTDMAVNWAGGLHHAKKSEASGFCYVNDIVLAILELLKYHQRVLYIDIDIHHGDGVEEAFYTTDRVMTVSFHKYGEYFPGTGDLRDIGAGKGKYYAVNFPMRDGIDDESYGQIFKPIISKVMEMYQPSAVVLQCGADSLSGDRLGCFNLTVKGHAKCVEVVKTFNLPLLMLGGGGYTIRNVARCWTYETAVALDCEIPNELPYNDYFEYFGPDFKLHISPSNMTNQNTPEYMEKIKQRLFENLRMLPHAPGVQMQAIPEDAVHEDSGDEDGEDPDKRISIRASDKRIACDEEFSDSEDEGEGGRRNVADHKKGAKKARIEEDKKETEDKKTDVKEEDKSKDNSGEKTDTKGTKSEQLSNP
Method: as §1, §2

RPMI8226 = assay: In vitro anti-proliferation assay (ATPlite luminescence); type: cell-based; conditions: Homo sapiens, RPMI-8226; RPMI8226, 72 hours, 5% FBS; read-out: IC50 cell anti-proliferative assay RPMI8226
Method: (§3) Cell antiproliferation was assayed by PerkinElmer ATPlite™ Luminescence Assay System. The cancer cell lines were plated at 10 k cells per well in Costar 96-well plates with different concentration of compounds for 72 hours with 5% FBS. After that, one lyophilized substrate solution vial was reconstituted by adding 5 mL of substrate buffer solution and was agitated gently until the solution is homogeneous. 50 μL of mammalian cell lysis solution was added to 100 μL of cell suspension per well of a microplate and the plate was shaken for five minutes in an orbital shaker at 700 rpm. This procedure will lyses the cells and stabilizes the ATP. Next, 50 μL substrate solution was added to the wells and microplate was shaken for five minutes in an orbital shaker at 700 rpm. Finally the luminescence was measured by a PerkinElmer TopCount® Microplate Scintillation Counter. Such assays, carried out with a range of doses of test compounds, allow the determination of an approximate IC50 value for the in vitro cell antiproliferation assay of cancer cell lines.

MM1S = assay: as above; type: cell-based; conditions: Homo sapiens, MM1.S, 72 hours, 5% FBS, read-out: IC50 cell anti-proliferative assay MM1S
Method: as §3

MM1R = assay: as above; type: cell-based; conditions: MM.1R, 72 hours, 5% FBS, read-out: IC50 cell anti-proliferative assay MM1R
Method: as §3

## Cn1c(CCCC(=O)O)nc2cc(N(CCCl)CCCl)ccc21 [Bendamustine]
HDAC-10; HDAC-10, Bendamustine, unit not given
  HDAC IC50, HDAC-10 (result in words): No activity
HDAC-1; Bendamustine, unit not given
  HDAC IC50, HDAC-1 (result in words): No activity
HDAC-3; Bendamustine, unit not given
  HDAC IC50, HDAC-3 (result in words): No activity
HDAC-6; HDAC-6, Bendamustine, unit not given
  HDAC IC50, HDAC-6 (result in words): No activity
HDAC-8; HDAC-8, Bendamustine, unit not given
  HDAC IC50, HDAC-8 (result in words): No activity
HDAC-2
  HDAC IC50, HDAC-2 (result in words): No activity
RPMI8226
  IC50: 400 µM
MM1S
  IC50: 119 µM
MM1R
  IC50: 100 µM

## Cn1c(CCCCCCC(=O)NO)nc2cc(N(CCCl)CCCl)ccc21 [CY190602]
HDAC-10
  IC50: 0.072 µM
HDAC-1
  IC50: 0.017 µM
HDAC-3
  IC50: 0.025 µM
HDAC-6
  IC50: 0.006 µM
HDAC-8
  IC50: 0.107 µM
HDAC-2
  IC50: 0.009 µM
RPMI8226
  IC50: 4.16 µM
MM1S
  IC50: 1.6 µM
MM1R
  IC50: 2.66 µM
